Laboratory results reported in patent US20210346495A1, “METHODS AND COMPOSITIONS COMPRISING AN NFKB INHIBITOR AND AN ADJUVANT” (priority 2018, published 2021).
“Also recorded” adds a separate entry of the source.

Key:
ovalbumin (OVA) = assay: Anti-OVA antibody quantification day 21 (Example 3); assay type: in vivo, mouse
systemic TNF-a and IL-6 [1] = assay: Systemic cytokines, AddaVax vaccines with CpG or Pam3CSK4 (Example 2); assay type: in vivo, mouse; conditions: CpG or Pam3CSK4, ovalbumin, one hour
RAW macrophages = assay: IL-6 expression of RAW macrophages with LPS and NF-kB inhibitors (Example 2)
systemic cytokines = assay: Plasma cytokine analysis after OVA/CpG/AddaVax vaccination (Example 3); assay type: in vivo, mouse; conditions: for systemic MCP-1 / systemic IFN-γ: combined with CpG; for systemic IFN-γ: 24 h; for systemic IL-6 vs CpG alone, dose study / systemic TNF-α vs CpG alone, all doses / systemic TNF-α, comparison between doses: honokiol 200, 400, 800 μg, capsaicin 1, 5, 20 μg
systemic TNF-a and IL-6 [2] = assay: Systemic cytokines after vaccination with NF-kB inhibitor, CpG and ovalbumin (Example 2); assay type: in vivo, mouse; conditions: one hour post-vaccination
[3] = Pain response observed after vaccination; assay type: in vivo, mouse; conditions: original dose 20 μg
RAW 264.7 macrophages = assay: RAW macrophage cytokine analysis, IL-6 with LPS (Example 3); assay type: cell-based, mouse; conditions: for inhibition of IL-6 expression in vitro: capsaicin 200 μM, honokiol 20 μM, WA 400 nM
Excerpt: To begin exploring alternative NF-κB inhibitors, the inventors examined the literature for promising candidates. Due to the strong correlation between NF-KB activation and sepsis, cancer and autoimmune disorders, a large library of NF-κB inhibitors have been identified. The inventors first wanted to analyze the potential of a variety small molecule NF-κB inhibitors to inhibit inflammation in vitro in combination with lipopolysaccharide (LPS), a TLR4 agonist. The inventors chose several common commercially available NF-κB inhibitors and tested them in RAW macrophages. […] To determine if immune potentiation was specific to NFkB or general to all anti-inflammatory molecules, the inventors included the most common, FDA approved anti-inflammatory drugs acetaminophen (10 mM) and ibuprofen (800 μM). The inventors treated RAW macrophages with inhibitors and LPS and assayed the supernatant for IL-6 secretion (FIG. 18A).
The inventors examined the activities of the synthesized compounds in order to understand how the various functional groups affect anti-inflammatory action or adaptive immune response (FIGS. 23, 25). The inventors treated RAW macrophages with honokiol derivatives and LPS and analyzed IL-6 expression. The addition of LPS alone without a honokiol derivative gave high levels of IL-6 expression (6848 pg/mL). The addition of honokiol decreased IL-6 levels to 260 pg/mL, a decrease of 26-fold.
RAW macrophage cytokine analysis: RAW 264.7 macrophages were passaged and plated in a cell culture treated 12-well plate at 0.5×10^6 cells/well in 1 mL DMEM containing 10% FBS. Cells were grown for 2 days. Media was exchanged for 1 mL DMEM containing 10% HIFBS. Inhibitors were added at indicated concentrations and incubated for 45 min. After 45 min, LPS was added at 100 ng/mL and incubated at 37° C. and 5% CO2 for 24 h. Cell supernatant was removed and analyzed using BD Cytometric Bead Array Mouse Inflammation Kit.

ovalbumin = assay: Anti-ovalbumin antibody titer day 21, AddaVax vaccines (Example 2); assay type: in vivo, mouse
Excerpt: The inventors next wanted to examine how capsaicin, honokiol and WA would work with other TLR agonists. Additionally, the inventors wanted to compare these inhibitors to the most commonly used anti-inflammatory drugs, ibuprofen and acetaminophen. The inventors formulated the vaccines using AddaVax, an oil-in-water emulsion to ensure solubility of the inhibitors. The inventors used either CpG, a TLR 9 agonist or Pam3CSK4, a TLR 1/2 agonist as the immune adjuvant and ovalbumin as the antigen. The inventors analyzed systemic cytokines one hour post-vaccination. […] On day 21 the inventors analyzed the anti-ovalbumin antibody titer.

systemic TNF-α and IL-6 = assay: Systemic cytokines after gp120 vaccination; assay type: in vivo, mouse; conditions: gp120 antigen, 1 h
Method: To examine how this would translate in vivo, the inventors vaccinated mice with CpG (50 μg), Pam3CSK4 (20 μg) and R848 (50 μg) using gp120 as the antigen.
Mice were anesthetized lightly with isoflurane and injected intramuscularly in the hind leg with 50 uL containing antigen, adjuvant and PBS. […] CpG dose, 50 μg. SN50, 500 TNF-aN, 30 μg. IL-6N, 30 μg.
Blood was collected from mice at specified time points in 0.2 mL heparin coated collection tubes (VWR Scientific). Serum was isolated via centrifugation 2000×g for 5 min. Supernatant was collected and stored at −80° C. until use. Serum was analyzed using BD Cytometric Bead Array Mouse Th1/Th2/Th17 cytokine kit or Mouse Inflammation cytokine kit according to manufacturer's protocol. Briefly, beads containing antibodies for desired cytokines were mixed with 50 μL serum and 50 μL PE detection reagent and incubated for 2 h. Beads were washed and analyzed using BD Accuri C6 flow cytometer. Data was analyzed using BD Accuri C6 software and Graphpad Prism.

[4] = test system: non-human primate (NHP) primary peripheral blood mononuclear cells (PBMCs); assay: NHP PBMCs stimulated with LPS with or without SN50; assay type: cell-based; conditions: 6 h
Method: To understand how this may translate to human vaccinations, the inventors treated THP-1 monocytes with […] LPS with or without SN50. […] Additionally, the inventors examined the effects of SN50 on non-human primate (NHP) primary peripheral blood mononuclear cells (PBMCs). The inventors stimulated NHP PBMCs with SN50 and LPS or LPS alone for 6 h and analyzed the cell supernatant for pro-inflammatory cytokines. […] This implies that SN50 may work similarly in NHP and humans as it does in mice.

[5] = inhibitor 45 min before 100 ng/mL LPS, 3 h
[6] = 100 μg OVA, 50 μg CpG + inhibitor, AddaVax, 1 h
[7] = 100 μg OVA, 50 μg CpG, AddaVax, 1 h

Molecule: COc1cc(CNC(=O)CCCCC=CC(C)C)ccc1O [capsaicin, 8-methyl-N-vanillyl-6-nonenamide]
- anti-OVA antibodies in the serum vs CpG alone (ovalbumin (OVA); 1 μg and 5 μg): did not change level of anti-OVA antibodies in the serum compared to CpG alone
- anti-OVA antibodies in the serum vs CpG alone (ovalbumin (OVA); 20 μg): significantly increased serum levels
- systemic IL-6 (systemic TNF-a and IL-6 [1]): decreased to levels consistent with PBS
- systemic TNF-a (systemic TNF-a and IL-6 [1]): comparable to PBS alone
- IL-6 expression (RAW macrophages; [5]): reduced levels of IL-6
- decrease of systemic TNF-α vs CpG (systemic cytokines; [6]): 28 fold
- reduction of systemic IL-6 vs CpG (systemic cytokines; [6]): 20 fold
- systemic IL-6 (systemic cytokines; [7]): 47.4 pg/mL
- systemic MCP-1 (systemic cytokines): slightly elevated MCP-1 levels
- systemic IFN-γ (systemic cytokines): increased IFN-γ levels at 24 h compared to CpG alone
- systemic IL-6 vs CpG alone, dose study (systemic cytokines; 1 h): only decreased with 400 μg and 800 μg honokiol and 20 μg capsaicin
- systemic TNF-α vs CpG alone, all doses (systemic cytokines; 1 h): decreased TNF-α levels significantly across all doses compared to CpG alone
- systemic TNF-α, comparison between doses (systemic cytokines; 1 h): Doses of 5 μg and 20 μg decreased levels of TNF-α significantly more than 1 μg
- systemic IL-6 (systemic TNF-a and IL-6 [2]): IL-6 levels consistent with PBS injection
- systemic TNF-a (systemic TNF-a and IL-6 [2]): returning the systemic TNF-a levels to background
- pain response [3]: pain response was observed
- inhibition of IL-6 expression in vitro (RAW 264.7 macrophages): most effective at inhibiting IL-6 expression in vitro

Molecule: COc1cc(/C=C/C(=O)CC(=O)/C=C/c2ccc(O)c(OC)c2)ccc1O [curcumin]
- IL-6 expression (RAW macrophages; [5]): did not demonstrate a change in IL-6 activity in vitro
- systemic IL-6 (systemic TNF-a and IL-6 [2]): did not significantly alter the IL-6 levels
- systemic TNF-a (systemic TNF-a and IL-6 [2]): increasing the average expression levels

Molecule: COc1cc(O)cc(O)c1C(=O)/C=C/c1ccccc1 [cardamonin, Cardamonin]
- IL-6 expression (RAW macrophages; [5]): completely inhibited IL-6 expression
- IL-6 expression (RAW macrophages; inhibitor 45 min before 100 ng/mL LPS, 3 h, listed as Cardamonin): complete reduction of IL-6 to background levels
- systemic TNF-a (systemic TNF-a and IL-6 [2]): no change in systemic TNF-a levels compared to CpG alone

Molecule: CC(=O)Nc1ccc(O)cc1 [acetaminophen]
- anti-OVA antibody level lower than CpG alone (ovalbumin (OVA)): 2.4 fold
- systemic IL-6 (systemic TNF-a and IL-6 [1]): less effective at decreasing systemic IL-6 levels
- anti-ovalbumin antibody titer (ovalbumin): decreases in antibody titer
- decrease of systemic TNF-α vs CpG (systemic cytokines; [6]): 1.8 fold
- systemic IL-6 (systemic cytokines; [6]): did not decrease IL-6 expression significantly

Molecule: CCOCc1nc2c(N)nc3ccccc3c2n1CC(C)(C)O [R848]
- systemic TNF-α and IL-6, effect of adding SN50 to the named adjuvant (systemic TNF-α and IL-6): significant decrease in systemic cytokines

Molecule: O=c1cc(-c2ccc(O)c(O)c2)oc2cc(O)cc(O)c12 [luteolin]
- IL-6 expression (RAW macrophages; [5]): decreases in proinflammatory cytokine activity without entirely blocking expression

Molecule: Pam3CSK4
- systemic TNF-α and IL-6, effect of adding SN50 to the named adjuvant (systemic TNF-α and IL-6): significant decrease in systemic cytokines

Molecule: CC(C)Cc1ccc(C(C)C(=O)O)cc1 (stereo not shown) [ibuprofen]
- anti-OVA antibody level lower than CpG alone (ovalbumin (OVA)): 3.2 fold
- systemic IL-6 (systemic TNF-a and IL-6 [1]): less effective at decreasing systemic IL-6 levels
- anti-ovalbumin antibody titer (ovalbumin): decreases in antibody titer
- decrease of systemic TNF-α vs CpG (systemic cytokines; [6]): 1.4 fold
- systemic IL-6 (systemic cytokines; [6]): did not decrease IL-6 expression significantly
- systemic TNF-α (systemic cytokines; [7]): 738 pg/mL

Molecule: O=C(/C=C/c1ccc(O)c(O)c1)OCCc1ccccc1 [CAPE, Caffeic acid phenethyl ester]
- IL-6 expression (RAW macrophages; [5]): complete reduction of IL-6 to background levels; also recorded: completely inhibited IL-6 expression
- systemic IL-6 (systemic TNF-a and IL-6 [2]): about a two-fold decrease in IL-6 levels
- systemic TNF-a (systemic TNF-a and IL-6 [2]): no change in systemic TNF-a levels compared to CpG alone

Molecule: C=CCc1ccc(O)c(-c2ccc(O)c(CC=C)c2)c1 [honokiol]
- anti-OVA antibodies vs CpG alone, all doses (ovalbumin (OVA); honokiol 200, 400, 800 μg): all doses of honokiol increased levels of anti-OVA antibodies compared to CpG alone
- dose with the highest anti-OVA antibody level (ovalbumin (OVA); honokiol 200, 400, 800 μg): 400 µg
- decrease in systemic IL-6 (systemic TNF-a and IL-6 [1]): 4 fold
- IL-6 expression (RAW macrophages; [5]): decreases in proinflammatory cytokine activity without entirely blocking expression; also recorded: reduced levels of IL-6
- decrease of systemic TNF-α vs CpG (systemic cytokines; [6]): 2.3 fold
- reduction of systemic IL-6 vs CpG (systemic cytokines; [6]): 3.5 fold
- systemic IL-6 (systemic cytokines; [7]): 266 pg/mL
- systemic MCP-1 (systemic cytokines): slightly elevated MCP-1 levels
- systemic IFN-γ (systemic cytokines): increased IFN-γ levels at 24 h compared to CpG alone
- systemic IL-6 vs CpG alone, dose study (systemic cytokines; 1 h): only decreased with 400 μg and 800 μg honokiol and 20 μg capsaicin
- systemic TNF-α vs CpG alone, all doses (systemic cytokines; 1 h): significant decrease in TNF-α expression compared to CpG alone
- systemic TNF-α, comparison between doses (systemic cytokines; 1 h): no significant difference between the different doses
- systemic IL-6 (systemic TNF-a and IL-6 [2]): about a two-fold decrease in IL-6 levels
- systemic TNF-a (systemic TNF-a and IL-6 [2]): reduced the TNF-a levels by two-fold
- inhibition of IL-6 expression in vitro (RAW 264.7 macrophages): most effective at inhibiting IL-6 expression in vitro
- IL-6 expression (RAW 264.7 macrophages; honokiol derivative study): 260 pg/mL
- decrease of IL-6 vs LPS alone (RAW 264.7 macrophages; honokiol derivative study): 26 fold

Molecule: Oc1ccc(C=Cc2cc(O)cc(O)c2)cc1 [resveratrol]
- IL-6 expression (RAW macrophages; [5]): decreases in proinflammatory cytokine activity without entirely blocking expression

Molecule: lipopolysaccharide [LPS]
- IL-6 expression (RAW macrophages; 100 ng/mL LPS, 3 h post-activation): 362 pg/mL
- TNF-α and IL-6 in the cell supernatant [4]: high levels of TNF-α and IL-6
- IL-6 expression (RAW 264.7 macrophages; honokiol derivative study): 6848 pg/mL

Molecule: CC(/C=C/C(=O)NO)=C\[C@@H](C)C(=O)c1ccc(N(C)C)cc1 [TSA]
- IL-6 expression (RAW macrophages; [5]): complete reduction of IL-6 to background levels

Molecule: CC1=C(CO)C(=O)O[C@@H]([C@@H](C)[C@H]2CC[C@H]3[C@@H]4C[C@H]5O[C@]56[C@@H](O)C=CC(=O)[C@]6(C)[C@H]4CC[C@]23C)C1 [WA, Withaferin A]
- systemic IL-6 (systemic TNF-a and IL-6 [1]): less effective at decreasing systemic IL-6 levels
- IL-6 expression (RAW macrophages; [5]): decreases in proinflammatory cytokine activity without entirely blocking expression; also recorded: completely inhibited IL-6 expression
- decrease of systemic TNF-α vs CpG (systemic cytokines; [6]): 1.8 fold
- systemic IL-6 (systemic cytokines; [6]): did not decrease IL-6 expression significantly
- systemic IL-6 (systemic TNF-a and IL-6 [2]): about a two-fold decrease in IL-6 levels
- systemic TNF-a (systemic TNF-a and IL-6 [2]): no change in systemic TNF-a levels compared to CpG alone
- inhibition of IL-6 expression in vitro (RAW 264.7 macrophages): most effective at inhibiting IL-6 expression in vitro

Molecule: COc1cc(O)c2c(c1)/C=C/C[C@H](O)[C@H](O)C(=O)/C=C\C[C@H](C)OC2=O [5-z-o, 5Z-7-Oxozeaenol]
- IL-6 expression (RAW macrophages; [5]): complete reduction of IL-6 to background levels; also recorded: completely inhibited IL-6 expression
